Measurements taken from patent US11459355B2, “Peptides having octopus octopressin activity and use thereof” (NATIONAL MARINE BIODIVERSITY INSTITUTE OF KOREA, priority 2018, dated 2022).

Test system: Octopus minor
Experiment: Analysis of bioactivity of octopressin peptide: behavior change of adult Octopus minor after injection
Type: in vivo
Method: Peptides satisfying the octopressin amino acid sequence and modification predicted in Example 4 were ordered and purchased from a peptide synthesizing company and used. A dried peptide powder was dissolved in tertiary distilled water to a concentration of 10 mg/ml, diluted 100 times of artificial seawater filtered through a 0.20 μm filter to prepare an injection solution. A disposable syringe and a 26 gauge needle were used to poke at a 1 cm deep, and the injection solution was administered in the center between the body of the head of the adult Octopus minor. The injection volume was 100 microgram/kg by weight of the Octopus minor. As a control group, Octopus minor without injection (before injection), Octopus minor injected with filtered artificial seawater only, and Octopus minor injected with octopus-derived octopressin were used. […] In addition, these behavior changes began to appear 1 to 5 minutes after injection and lasted for 10 to 20 minutes, and the effect peaked between 5 to 10 minutes after injection and lasted for 10 to 20 minutes. […] Here, the used Octopus minor were discarded without reuse.

CFWTNCPVG (Octopressin_active peptide) [octopressin-activated peptide]
brooding-like behavior after injection (FIG. 6B) (Octopus minor injected with octopressin): behaviors similar to the brooding behaviors
behavior change after injection (repetitive bending and stretching of arms, social behaviors) (adult Octopus minor, injection between body and head, 100 microgram/kg, total of 12 Octopus minors, regardless of sex): had bioactivity
